The results in this text go back to patent US7192980B2, “Certain substituted polyketides, pharmaceutical compositions containing them and their use in treating tumors” (Novartis AG, priority 2001, dated 2007).

The structures appear in SMILES notation.

Common to all, as to assay type: cell-based
One test relates to MIP 101 colon carcinoma. Put plainly: Anchorage Dependent Growth Monolayer Assay (ADGMA), MIP 101. Conditions: Homo sapiens, Colon carcinoma cell, 72 h; MIP 101 colon carcinoma cells, 3-day exposure, MTT, A540; * = average of two independent experiments. From the text:
(§1) As indicated above, all of the compounds of formula I are anti-tumor agents and are, therefore, useful in inhibiting the growth of various lymphomas, sarcomas, carcinomas, myelomas, and leukemia cell lines. […] This assay was adapted from the 60 cell line assay used by the National Cancer Institute (NCI) with the following modifications:
(§2) 1) four cell lines representative for the important tumor types, viz., MIP 101 colon carcinoma, HCT 116 colon carcinoma, 1A9 ovarian carcinoma and 1A9PTX22 ovarian carcinoma were utilized; and 2) a tetrazolium derivative, viz., MTT, was utilized to determine cell density.
(§3) The ADGMA compares the number of viable cells following a 3-day exposure to a test compound relative to the number of cells present at the time the test compound was added. […] The absorbance at 540 nm (A540) of the formazan derivative is proportional to the number of viable cells. The IC50 for a test compound is the concentration of compound required to reduce the final cell number to 50% of the final control cell number. If cell proliferation is inhibited, the assay further defines compounds as cytostatic (cell number after 3-day compound incubation>cell number at time of compound addition) or cytotoxic (cell number after 3-day compound incubation<cell number at time of compound addition).
(§4) The HCT 116 colon carcinoma cell line was obtained from the American Type Culture Collection (ATCC, Rockville, Md.). The MIP 101 colon carcinoma was obtained from Dr. Robert Kramer (Bristol Meyers Squibb) and was previously described (Niles R M, Wilhelm S A, Steele G D JR, Burke B, Christensen T, Dexter D, O'Brien M J, Thomas P, Zamcheck N. Isolation and characterization of an undifferentiated human colon carcinoma cell line (MIP 101). Cancer Invest. 1987;5(6):545–52). The 1A9 and the 1A9PTX22 ovarian tumor cell lines were obtained from Dr. Tito Fojo, Medicine Branch, Division of Clinical Sciences, National Cancer Institute, National Institutes of Health, Bethesda, Md. 20892. The 1A9 is a clone of the ovarian carcinoma cell line, A2780 (Giannakakou P, Sackett, D L, Kang Y-K, Zhan Z, Buters J T M, Fojo T, Poruchynsky M S. Paclitaxel-resistant human ovarian cancer cells have mutant β-tubulins that impaired paclitaxel-driven polymerization. J. Biol. Chem. 1997, 272(4):17118–17125). The 1A9PTX22 subline was isolated as an individual clone from the 1A9 cell line in a single step selection by exposure to 5 ng/mL paclitaxel in the presence of 5 μg/mL of verapamil. All cell lines were used between passages 4–20 following thawing. MIP 101 colon carcinoma, HCT 116 colon carcinoma, 1A9 ovarian carcinoma and 1A9PTX22 ovarian carcinoma cell lines are maintained and plated in RPMI 1640 medium containing 10% fetal bovine serum.
(§5) Cells are trypsinized and counted using a hemacytometer to determine cell concentrations. Cells were then plated in their respective maintenance media (200 μL/well) in 96-well plates at the following concentrations: MIP 101, 2000 cells/well, HCT 116, 2000 cells/well, 1A9, 10000 cells/well, and 1A9PTX22, 10000 cells/well. […] Initial cell densities, assayed one day after plating, are roughly 0.10–0.20 A540 absorbance units greater than the media blank. Ninety-six-well plates were seeded on day 0 and the test compounds are added on day 1. A “time 0” plate was created that received media only in row A and one cell line/row in rows B–E. The “time 0” plate was processed 24 hours after plating (at the time when drugs were added to experimental plates), as follows: To each well 5 micoliters of the MTT stock solution (0.5 mg/mL in PBS) was added to each well and then incubated for three hours at 37° C., 5% CO2, in a humidified environment. Media was then carefully and completely removed. Plates were allowed to dry in the dark. Dimethylsulfoxide (DMSO) was added to each well (100 μL/well) and plates were placed on an orbital shaker for 2 hours. […]

A further test deals with HCT 116 colon carcinoma. Put plainly: Anchorage Dependent Growth Monolayer Assay (ADGMA), HCT 116. Particulars: Homo sapiens, 72 h; HCT 116 colon carcinoma cells, 3-day exposure, MTT, A540; * = average of two independent experiments; read-out: IC50 HCT116.
Excerpt: as §1, §2, §3, §4, §5

The subject of another test is 1A9 ovarian carcinoma. Put plainly: Anchorage Dependent Growth Monolayer Assay (ADGMA), 1A9. Conditions: Homo sapiens, Ovarian carcinoma cell, 72 h; 1A9 ovarian carcinoma cells, 3-day exposure, MTT, A540; * = average of two independent experiments.
Excerpt: as §1, §2, §3, §4, §5

Test [1] deals with 1A9PTX22 ovarian carcinoma. Put plainly: Anchorage Dependent Growth Monolayer Assay (ADGMA), 1A9PTX22. Conditions: Homo sapiens, 1A9/ptx-22, 72 h; 1A9PTX22 ovarian carcinoma cells (paclitaxel-selected subline), 3-day exposure, MTT, A540; * = average of two independent experiments.
Excerpt: as §1, §2, §3, §4, §5

As a reminder, the IC50 is the concentration at which inhibition is half-maximal.

As for `C=C/C=C\[C@H](C)C(OC(N)=O)C(C)C(O)C(C)C/C(C)=C\[C@H](C)[C@@H](O)[C@@H](C)/C=C\C(O)CC1CCCC1` (stereo partly drawn) [Ex. 6, (2S,3Z,5S,6S,7S,8Z,11S,12R,13R,14S,15S,16Z)-1-cyclopentyl-5,7,9,11,13,15-hexamethyl-3,8,16,18-nonadecatetraene-2,6,12,14-tetrol-14-carbamate], the IC50 in the test on MIP 101 colon carcinoma worked out at 6 nM; in the test on HCT 116 colon carcinoma it was 1 nM; in the test with 1A9 ovarian carcinoma, 0.3 nM; in test [1] it was 1 nM.

For `C=C/C=C\[C@H](C)C(OC(N)=O)C(C)C(O)C(C)C/C(C)=C\[C@H](C)[C@@H](O)[C@@H](C)CN(C)C(=O)CC1CCCCC1` (some centres unmarked) [Ex. 5], the IC50 in the test with MIP 101 colon carcinoma was determined as 600 nM; in the test with HCT 116 colon carcinoma it was 300 nM; in the test with 1A9 ovarian carcinoma, 400 nM; in test [1] it was 80 nM.

With `CC(=O)O[C@H]1C(=O)[C@@]2(C)[C@H]([C@H](OC(=O)c3ccccc3)[C@]3(O)C[C@H](OC(=O)[C@H](O)[C@@H](NC(=O)c4ccccc4)c4ccccc4)C(C)=C1C3(C)C)[C@]1(OC(C)=O)CO[C@@H]1C[C@@H]2O` [Paclitaxel, reference compound], the IC50 in the test on MIP 101 colon carcinoma turned out to be 200 ± 60 nM; with HCT 116 colon carcinoma, 0.3 ± 0.2 nM; in the test on 1A9 ovarian carcinoma, 47 ± 7 nM; in test [1] it was 1 ± 1 nM.

In the case of `C=C/C=C\[C@H](C)C(OC(N)=O)C(C)C(O)C(C)C/C(C)=C\[C@H](C)[C@@H](O)[C@@H](C)COC(=O)NC1CCCCC1` (stereo partly drawn) [Ex. 2, (5Z,8S,9R,10S,11S,12S,13Z)-11-[(aminocarbonyl)oxy]-3,9-dihydroxy-2,4,6,8, 10,12-hexamethyl-5,13,15-hexadecatrienyl ester cyclohexylcarbamic acid], the concentration for half-maximal inhibition (IC50) was determined as 3200 nM with MIP 101 colon carcinoma, 400 nM in the test on HCT 116 colon carcinoma, 500 nM in the test with 1A9 ovarian carcinoma and 400 nM in test [1].

As for `C=C/C=C\[C@H](C)[C@H](OC(N)=O)[C@@H](C)[C@H](O)[C@@H](C)C/C(C)=C\C(C)C(O)C(C)/C=C\[C@@H](O)C[C@H]1CCCC(=O)O1` (stereo partly drawn) [Ex. 1, 6-[(2S,3Z,8Z,11S,12R,13S,14S,15S,16Z)-14-[(aminocarbonyl)oxy]-2,6,12-trihydroxy-5,7,9,11,13,15-hexamethyl-3,8,16,18-nonadecatetraenyl]tetrahydro-(6R)-2H-pyran-2-one], the IC50 amounted to 60 ± 10 nM in the test with MIP 101 colon carcinoma, 7 ± 5 nM in the test on HCT 116 colon carcinoma, 6 ± 2 nM in the test with 1A9 ovarian carcinoma and 7 ± 2 nM in test [1].

`C=C/C=C\[C@H](C)C(OC(N)=O)C(C)C(O)C(C)C/C(C)=C\[C@H](C)[C@@H](O)[C@@H](C)/C=C\C(=O)N(C)c1ccccc1` (stereo partly drawn) [Ex. 4, (2Z,7Z,10S,11R,12S,13S,14S,15Z)-13-[(aminocarbonyl)oxy]-5,11-dihydroxy-N,4,6,8,10,12,14-heptamethyl-N-phenyl 2,7,15,17-octadecatetraenamide]: the IC50 with MIP 101 colon carcinoma was 3200 nM; in the test with HCT 116 colon carcinoma it was 800 nM; with 1A9 ovarian carcinoma, 500 nM; in test [1] it was 400 nM.

`C=C/C=C\[C@H](C)C(OC(N)=O)C(C)C(O)C(C)C/C(C)=C\[C@H](C)[C@@H](O)[C@@H](C)/C=C\C(O)CC(C)C` (stereo partly drawn) [Ex. 7, (2S,3Z,5S,6S,7S,8Z,11S,12R,13R,14S,15S,16Z)-1-isopropyl-5,7,9,11,13,15-hexamethyl-3,8,16,18-nonadecatetraene-2,6,12,14-tetrol-14-carbamate]: the IC50 in the test with MIP 101 colon carcinoma was 100 nM; with HCT 116 colon carcinoma it was 30 nM; with 1A9 ovarian carcinoma it was 30 nM; in test [1] it was 60 nM.

Regarding `C=C/C=C\[C@H](C)C(OC(N)=O)C(C)C(O)C(C)C/C(C)=C\[C@H](C)[C@@H](O)[C@@H](C)/C=C\COc1ccccc1` (stereo partly drawn) [Ex. 3, (2Z,7Z,10S,11R,12S,13S,14S,15Z)-4,6,8,10,12,14-hexamethyl-1-phenoxy-2,7,15,17-octadecatetraene-5,11,13-triol-13-carbamate], the IC50 in the test on MIP 101 colon carcinoma worked out at 400 ± 100 nM; in the test with HCT 116 colon carcinoma, 200 ± 100 nM; in the test with 1A9 ovarian carcinoma it was 300 ± 90 nM; in test [1], 100 ± 40 nM.
